Holding throughout (type): cell-based
In test [1] the target is T1, D172N KIR2.1 (Homo sapiens, UniProt P63252, D172N).
T1 construct: expressed in transfected cells; host or cells: HEK293T
T1 sequence (P63252 1-427 D172N): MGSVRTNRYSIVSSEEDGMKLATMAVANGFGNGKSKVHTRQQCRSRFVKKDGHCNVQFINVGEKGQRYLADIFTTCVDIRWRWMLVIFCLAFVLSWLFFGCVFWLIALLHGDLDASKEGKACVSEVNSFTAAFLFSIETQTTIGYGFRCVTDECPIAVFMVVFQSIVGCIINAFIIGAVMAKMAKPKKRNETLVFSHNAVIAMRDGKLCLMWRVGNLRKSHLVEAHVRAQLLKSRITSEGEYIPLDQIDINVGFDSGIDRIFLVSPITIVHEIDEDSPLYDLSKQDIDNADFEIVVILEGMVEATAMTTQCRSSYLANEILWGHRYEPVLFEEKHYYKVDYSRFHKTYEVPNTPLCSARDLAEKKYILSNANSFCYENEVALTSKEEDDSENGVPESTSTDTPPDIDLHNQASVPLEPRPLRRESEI
The experiment in a line: Inside-out patch clamp, ramp protocol, D172N KIR2.1 currents. To be noted: inside-out mode; for IC50: HEK293T, 21 °C. The text has this: (§1) Mutations V93I and D172N were engineered into a human KCNJ2-pcDNA3 expression construct, using the QuikChange II XL Site-Directed Mutagenesis Kit (Stratagene, La Jolla, CA) and custom designed primers. The presence of the introduced mutations was confirmed by Sanger sequencing.
(§2) HEK293T cells were transfected with WT, V93I or D172N constructs together with a GFP expression construct to enable detection of transfected cells. Inside-out patch clamp measurements were made using a HEKA EPC-10 Double Plus amplifier controlled by PatchMaster 2.10 software (HEKA, Lambrecht/Pfalz, Germany) at 21 °C. To record WT, V93I and D172N KIR2.1 currents, inside-out patch-clamp measurements were performed using a ramp protocol ranging from −100 to +100 mV in 5 s from a holding potential of −40 mV. Excised patches were placed in close proximity to the inflow region of the perfusion chamber. Bath solution contained 125 mM KCl, 4 mM EDTA (2K), 7.2 mM K2HPO4, 2.8 mM KH2PO4, pH 7.20/KOH. Pipette solution contained 145 mM KCl, 1 mM CaCl2, 5 mM HEPES, pH 7.40/KOH. Measurements were started following washout of polyamines/Mg^2+ from the channel pore observed by the disappearance of current rectification. For IC50 curves, fractional block at −80 and +50 mV was determined by dividing current levels obtained with PA-6 containing solutions by current levels of control traces recorded in the absence of PA-6.

Test [2] addresses T1, D172N KIR2.1. The experiment in a line: Whole cell patch clamp, D172N KIR2.1 currents. To be noted: whole cell mode. As to the method:
as §1
Whole cell patch clamp measurements were done as described before using an AxoPatch 200B amplifier controlled by pClamp9 software (Molecular devices, Sunnyvale, CA, USA) at 21 °C. Whole cell IKIR2.1 measurements were performed by applying 1 s test pulses ranging between −120 and +30 mV, in 10 mV increments, from a holding potential of −40 mV, and with series resistance compensation of at least 70%. Steady state current at the end of the pulse was normalized to cell capacitance and plotted versus test potential (corrected for liquid junction potential). Extracellular solution contained 140 mM NaCl, 5 mM KCl, 1 mM CaCl2, 1 mM MgCl2, 6 mM glucose, 17.5 mM NaHCO3, 15 mM HEPES, pH 7.4/NaOH. Pipette solution contained 125 mM potassium gluconate, 10 mM KCl, 5 mM HEPES, 5 mM EGTA, 2 mM MgCl2, 0.6 mM CaCl2, 4 mM Na2ATP, pH 7.20/KOH.
(In general: The patch-clamp technique gives a direct electrical read-out from membranes.)

The target of another test is T2, V93I KIR2.1 (Homo sapiens, UniProt P63252, V93I).
T2 construct: expressed in transfected cells; host or cells: HEK293T
T2 sequence (P63252 1-427 V93I): T1 sequence (P63252 1-427 D172N) with V93I, N172D
Description: Inside-out patch clamp, ramp protocol, V93I KIR2.1 currents. Conditions: inside-out mode, HEK293T, 21 °C.
Text: as §1, §2

[3] abbreviates: at +50 mV, read-out: IC50, outward current.
Where [4] appears, read: at −80 mV, read-out: IC50, inward current.
Setting [5] is: at −50 mV, read-out: Inhibition of outward IK1.
Where [6] appears, read: at −110 mV, read-out: Inhibition of inward IK1.

Here are results for one compound from paper PMC5513211, “PA-6 inhibits inward rectifier currents carried by V93I and D172N gain-of-function KIR2.1 channels, but increases channel protein expression” (Journal of Biomedical Science, 2017).

Positions count from the first letter of the chain named. Read-outs that look alike come from different tables or passages of the source.

As usually defined, the IC50 is the concentration that inhibits the measured activity by half. The inhibition is how much of the control response was suppressed. On to `N=C(Nc1ccc(OCCCCCOc2ccc(NC(=N)c3ccccc3)cc2)cc1)c1ccccc1` [PA-6], for which the IC50 on D172N KIR2.1 [1] (setting [3]) was 129 nM; at D172N KIR2.1 [1] (setting [4]), 109 nM; at D172N KIR2.1 [2], 1000 to 3000 nM; on V93I KIR2.1 (setting [3]), 43.6 nM; on V93I KIR2.1 (setting [4]) it was 58 nM. Further, the “Sensitivity of D172N channels relative to WT and V93I” value on D172N KIR2.1 [1] is “approximately two to three fold less sensitive”. Moreover, the figures for the inhibition at 1 µM on D172N KIR2.1 [2] (setting [5]) and at D172N KIR2.1 [2] (setting [6]) were 10 ± 6% and 30 ± 10%, respectively. Moreover, the results for the inhibition at 3 µM at D172N KIR2.1 [2] (setting [5]) and at D172N KIR2.1 [2] (setting [6]) were 86 ± 7% and 83 ± 1%, respectively.
